Assay results taken from article PMC4967059, “Efficient 9α-hydroxy-4-androstene-3,17-dione production by engineered Bacillus subtilis co-expressing Mycobacterium neoaurum 3-ketosteroid 9α-hydroxylase and B. subtilis glucose 1-dehydrogenase with NADH regeneration” (SpringerPlus, 2016).

Molecular target: T1, KshB (Mycolicibacterium neoaurum, UniProt D2Y640)
T1 construct: gene kstR; pMA5-kshB primer R1 carries no His-tag
Assay: dichlorophenolindophenol reduction assay
Format: biochemical
Details: 0.25 mM NADH, 0.1 mM 2,6-dichlorophenolindophenol, 50 mM Tris-HCl pH 7.0, room temperature; electron donor; data not shown

T1 sequence (D2Y640 entry or part of it): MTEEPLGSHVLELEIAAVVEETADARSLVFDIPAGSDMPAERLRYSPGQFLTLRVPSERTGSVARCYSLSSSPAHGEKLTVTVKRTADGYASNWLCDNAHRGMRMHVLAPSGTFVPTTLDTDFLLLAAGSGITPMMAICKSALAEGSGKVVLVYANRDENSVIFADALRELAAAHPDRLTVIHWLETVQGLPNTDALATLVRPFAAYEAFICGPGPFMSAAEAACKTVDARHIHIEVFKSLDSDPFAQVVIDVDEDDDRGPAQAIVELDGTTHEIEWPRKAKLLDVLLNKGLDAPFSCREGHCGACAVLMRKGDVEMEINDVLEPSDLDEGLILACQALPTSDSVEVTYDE

With `NC(=O)C1=CN([C@@H]2O[C@H](COP(=O)(O)OP(=O)(O)OC[C@H]3O[C@@H](n4cnc5c(N)ncnc54)[C@H](O)[C@@H]3O)[C@@H](O)[C@H]2O)C=CC1` [NADH] the dichlorophenolindophenol reduction assay was “accepts electrons from NAD(P)H and transfers it to oxygenase component KshA”.
